Values after ≈ are worked out from the molar mass of the structure shown.
Legend:
human cancer cell lines = settings: a number of human cancer cell lines, particularly vincristin-resistent cells; cited from earlier work
[1] = cytotoxicity test on HeLa human cervix carcinoma line; type: cell-based; settings: HeLa human cervix carcinoma cells, cytotoxic
Source text: (§1) The inventive substances 1-4 show very strong antiproliferative and cytotoxic effects (e.g. for L-929 mouse fibroblast, K-562 human leukemia cells and HeLa human cervix carcinoma line) and an antifungal activity (e.g. against Glomerella cingulata, Penicillium notatum, Fusarium culmorum, Hamigera avellanea, Aspergillus fumigatus). (See Table 1.)
(§2) The examination of the antiproliferative and cytotoxic properties of the substances 1-4 has been performed via the method described in the literature (H. M. Dahse, B. Schlegel, U. Gräfe, Pharmazie 2001, 56, 489-491). The antifungal activity has been determined via the agar diffusion test. (See Table 2.)

[2] = system: K-562 human leukemia cells; assay: antiproliferative test on K-562 human leukemia cells; type: cell-based; settings: K562
Source text: as §1, §2

L-929 mouse fibroblast = assay: antiproliferative test on L-929 mouse fibroblasts; type: cell-based; settings: L929
Source text: as §1, §2

SMILES	activity against human cancer cell lines (human cancer cell lines)	CC50 [1] [ng/mL]	GI50 [2] [ng/mL]	GI50 (L-929 mouse fibroblast) [ng/mL]
CO[C@@H](/C(C)=C/C=C/C(C)=C/c1coc(C)n1)[C@@H](C)[C@@H]1C[C@H](O)[C@@]2(C)O[C@@H]2/C=C/[C@@H](C)[C@H]2C[C@H](CC(=O)O2)C[C@@H]2O[C@H]2C(=O)O1 [Rhizoxin]	high activity	–	–	–
CC(/C=C/C=C(\C)[C@H](O)[C@@H](C)C1C[C@H](O)C2(C)O[C@@H]2/C=C/[C@@H](C)[C@H](O)C[C@H](CC(=O)O)C/C=C/C(=O)O1)=C\c1coc(C)n1 (some centres unmarked) [Substance 1]	–	90 (≈ 147 nM)	15 (≈ 24.4 nM)	–
COC(=O)C[C@@H]1C/C=C/C(=O)OC([C@H](C)[C@@H](O)/C(C)=C/C=C/C(C)=C/c2coc(C)n2)C[C@H](O)C2(C)O[C@@H]2/C=C/[C@@H](C)[C@H](O)C1 (some centres unmarked) [Substance 2]	–	0.28 (≈ 0.446 nM)	0.03 (≈ 0.0478 nM)	50 (≈ 79.6 nM)
COC(=O)C[C@@H]1C/C=C/C(=O)OC([C@H](C)[C@@H](OC)/C(C)=C/C=C/C(C)=C/c2coc(C)n2)C[C@H](O)C2(C)O[C@@H]2/C=C/[C@@H](C)[C@H](O)C1 (some centres unmarked) [Substance 3]	–	< 0.03	< 0.03	50 (≈ 77.9 nM)
COC(=O)C[C@@H]1C/C=C/C(=O)OC([C@H](C)[C@@H](OC)/C(C)=C/C=C/C(C)=C\c2coc(C)n2)C[C@H](O)C2(C)O[C@@H]2/C=C/[C@@H](C)[C@H](O)C1 (some centres unmarked) [Substance 4]	–	–	< 0.03	12 (≈ 18.7 nM)
